{"source": "patent US20100105864A1", "about": "“PROPHYLACTIC OR THERAPEUTIC AGENT FOR DIARRHEA” (priority 2007, published 2010)", "tested_on": "Balb/c mice", "assay": "Anticancer agent (5-FU)-induced diarrhea model", "assay_type": "in vivo", "procedure": "To each of Balb/c mice, an anticancer agent was administered to induce diarrhea, and γ-Glu-Val-Gly (hereinafter, referred to as “γEVG”) was studied for its inhibitory effect on diarrhea. To each of 6-week-old Balb/c mice fed with a low protein nutrient diet (4% casein diet) for 1 week, 5-FU (1 mg/animal/day) was intraperitoneally administered for consecutive 3 days. The diarrhea developed around Day 5 after the third administration of the anticancer agent, and the diarrhea appeared in all cases on Day 7. The presence or absence of diarrhea was determined based on the presence or absence of the stool in the tail head area. As the statistical test, a chi-square (χ^2) test for the control group (presence or absence of diarrhea) was employed, and p<0.05 was regarded as significant.\nEach administration of 0.01% γEVG was started in free water intake at the same time as the first administration of the anticancer agent, and continued until completion of the experiment.\nTo each of Balb/c mice, an anticancer agent was administered to induce diarrhea, and a calcium receptor activator (hereinafter, referred to as “CaSR agonist”) was studied for its inhibitory effect on diarrhea. To each of 6-week-old Balb/c mice fed with a low protein nutrient diet (4% casein diet) for 1 week, 5-FU (1 mg/animal/day) was intraperitoneally administered for consecutive 3 days. The diarrhea developed around Day 5 after the third administration of the anticancer agent, and the diarrhea appeared in all cases on Day 7. The presence or absence of diarrhea was determined based on the presence or absence of the stool in the tail head area. As the statistical test, a chi-square (χ^2) test for the control group (presence or absence of diarrhea) was employed, and p<0.05 was regarded as significant.\nThe administration of the CaSR agonist was started in free water intake at the same time as the administration of the low protein nutrient diet, and continued until completion of the experiment.", "note": "Marks after values point to notes of the source that are not given here."}
{"smiles": "N[C@@H](CCC(=O)N[C@@H](CS)C(=O)NCC(=O)O)C(=O)O", "note": "[γ-Glu-Cys-Gly]", "values": [{"measurement": "mice that did not exhibit the diarrhea symptom", "setting": "0.5% administration group, free water intake from start of low protein diet, control all 9/9 with diarrhea", "value": "2 out of 5"}, {"measurement": "Ratio of individuals that developed diarrhea", "setting": "0.5% in free water intake from start of low protein diet, control 9/9, p < 0.05 chi-square", "value": "3/5*"}]}
